Source: patent publication EP0235942B1, “Alkylenediamine derivatives” (NIPPON CHEMIPHAR CO., LTD., priority 1986, dated 1987)

Legend:
[1] = test system: Neuromuscular Junction of Crayfish; experiment: Glutamate blocking effect on neuromuscular junction of crayfish (intracellular recording of the L-glutamate-induced potential); assay type: cell-based; details: for inhibition at 20 µM / inhibition at 0.5 µM: 5 min; for inhibition at 20 µM: inhibition ratio of glutamate potential induced by L-glutamate (1 x 10⁻⁴M), pretreated with test solution (2 x 10⁻⁵ M) for 5 min; for inhibition at 0.5 µM: as Table 1, but concentration of the pretreatment liquid reduced to 5 x 10⁻⁷ M; for glutamate response after washing: treated sample washed with circulating salt solution for 40 min, then glutamate response measured
Experimental: (1) Evaluation of glutamate blocking effect was performed according to the methods of Ishida et al [J. Physiol., 298, 301-319(1980)], and Shinozaki et al[Comp. Biochem. Physiol, 70c, 49-58(1981)]. In more detail, the opener muscle of the first walking leg of the crayfish is employed for the examination described below. A neuromusculor sample is fixed in a vessel, and an aqueous salt solution for crayfish [composition: NaCℓ (195 mM), CaCℓ₂ (18mM), KCℓ (5.4 mM), Tris-maleate buffer (pH 7.5, 10 mM), and glucose (11 mM)] was circulated at a constant rate into the vessel. A glass microelectrode filled with 3M KCℓ solution was inserted into the middle portion of the muscle fibre and the change of potential induced by L-glutamate (1 x 10⁻⁴M) was measured intracellularly. The glutamate blocking effect of the compound to be tested was evaluated by determining an inhibition ratio of glutamate potential protreated by the test solution (2 x 10⁻⁵ M) for 5 min.
(2) The glutamate blocking effects of the compound of the present invention as described in Synthesis Example 3 (i.e. 1-[3-[4-methyl-1-(3-methylbutyl)penty]amino]propyl]piperidine) and the known 5-methyl-1-phenyl-2-(3-piperidinopropylamino)hexan-1-ol were evaluated in the same manner as above except that the concentration of the liquid for the pretreatment was reduced from 2 x 10⁻⁵ M to 5 x 10⁻⁷ M. The results are set forth in Table 2.
(§1) (3) The neuromuscular sample which was fixed in the vessel and treated in the above manner was subsequently washed with the salt solution flowing in the vessel under circulation for 40 min. After such washing was complete, the glutamate response was measured on the wahsed neuromuscular sample. […] Accordingly, it was confirmed that the glutamate blocking action of the aninoalcohol derivative was not kept for sufficient period of time. […] The prolongation of the effect of glutamate response shown in using this alkylenediamine compound was also observed on the alkylenediamine derivatives tested in the (1) above, (4) Acute toxicity (LD₅₀, i.v.) was measured on the alkylenediamine drivatives of the invention and the known aminoalcohol derivative.

[2] = Acute toxicity (LD50, i.v.); details: in vivo, iv, read-out: Acute Toxicity (LD₅₀)
Experimental: as §1

[3] = test system: opener muscle of the first walking leg of the crayfish; details: dose of 2 x 10⁻⁴M; glutamic acid (1x10⁻⁴M); cited from earlier work

Compound | inhibition at 20 µM [1] [%] | other results
CC(C)CCC(CNCCCN1CCCCC1)c1ccccc1 (stereo not drawn) [Synthesis Example 1, 1-[3-(5-Methyl-2-phenylhexylamino)propyl]piperidine] | 99 | –
CC(C)CCN(CCCN1CCCCC1)CCOc1ccccc1 [Synthesis Example 28, 1-[3-[3-Methyl-N-(2-phenoxyethyl)butylamino]propyl]piperidine] | 72 | –
CC(C)CCN(CCCc1ccccc1)CCCN1CCCCC1 [Synthesis Example 30, 1-[3-[3-Methyl-N-(3-phenylpropyl)butylamino]propyl]piperidine] | 96 | –
c1ccc(OC(CNCCCN2CCCCC2)c2ccccc2)cc1 (stereo not drawn) [Synthesis Example 8, 1-[3-(2-Phenoxy-2-phenylethylamino)propyl]piperidine] | 94 | –
CCCCCC(CCCCC)NCCCN1CCCCC1 [Synthesis Example 2, 1-[3-(1-Pentylhexylamino)propyl]piperidine] | 80 | LD50 [2]: 23.3 mg/kg
CC(C)CCC(CCNCCCN1CCCCC1)Cc1ccccc1 (stereo not drawn) [Synthesis Example 11, 1-[3-(3-Benzyl-6-methylheptylamino)propyl]piperidine] | 96 | –
CC(C)CCC(CCC(C)C)NCCCN1CCCCC1 [Synthesis Example 3, 1-[3-[4-Methyl-1-(3-methylbutyl)pentylamino]propyl]-piperidine] | 99 | inhibition at 0.5 µM [1]: 25%; glutamate response after washing [1]: almost no glutamate response; LD50 [2]: 29.5 mg/kg
COc1ccc([C@@H]2Sc3ccccc3N(CCN(C)C)C(=O)[C@@H]2OC(C)=O)cc1 [Diltiazem] | – | inhibition of depolarization induced by glutamic acid [3]: approx. 30%
Caroberine | – | inhibition of depolarization induced by glutamic acid [3]: approx. 30%
CC(C)CCN(CCCN1CCCCC1)CCc1ccccc1 [Synthesis Example 29, 1-[3-[3-Methyl-N-(2-phenylethyl)butylamino]propyl]piperidine] | 80 | –
CC(C)CC(=O)OCC(Cc1ccccc1)NCCCN1CCCCC1 (stereo not drawn) [Synthesis Example 9, 3-Phenyl-2-(3-piperidinopropylamino)propyl 3-methylbutanoate] | 90 | –
CC(C)CCC(NCCCN1CCCCC1)C(O)c1ccccc1 (stereo not drawn) [5-Methyl-1-phenyl-2-(3-piperidinopropylamino)hexan-1-ol, reference compound] | – | inhibition at 0.5 µM [1]: 6%; glutamate response after washing [1]: almost the same level as shown by the sample prior to the treatment; LD50 [2]: 13.6 mg/kg
CC(C)CCCCN(CCCN1CCCCCC1)CCC(C)C [Synthesis Example 41, 1-[3-[N-(3-Methylbutyl)-N-(5-methylhexyl)amino]propyl]perhydroazepin] | 100 | –
CC(C)CCC(Cc1ccccc1)NCCCN1CCCCC1 (stereo not drawn) [Synthesis Example 4, 1-[3-(1-Benzyl-4-methylpentylamino)propyl]piperidine] | 99 | –
CC(C)CCCCN(CCCCN1CCCCC1)CCC(C)C [Synthesis Example 38, 1-[4-[N-(3-Methylbutyl)-N-(5-methylhexyl)amino]butyl]piperidine] | 96 | –
CC(C)CCC(CCc1ccccc1)NCCCN1CCCCC1 (stereo not drawn) [Synthesis Example 10, 1-[3-[4-Methyl-1-(2-phenylethyl)pentylamino]propyl]piperidine] | 99 | –
CCC(CC)C(CCC(C)C)NCCCN1CCCCC1 (stereo not drawn) [Synthesis Example 15, 1-[3-[1-(1-Ethylpropyl)-4-methylpentylamino]propyl]piperidine] | 94 | –
CCCCCC(CCC(C)C)NCCCN1CCCCC1 (stereo not drawn) [Synthesis Example 18, 1-[3-[1-(3-Methylbutyl)hexylamino]propyl]piperidine] | 97 | –
CC(C)CCC(CCC(C)C)NCCCN1CCCC1 [Synthesis Example 20, 1-[3-[4-methyl-1-(3-methylbutyl)pentylamino]propyl]pyrrolidine] | 96 | –
CC(C)CCC(CCC(C)(C)C)NCCCN1CCCCC1 (stereo not drawn) [Synthesis Example 19, 1-[3-[4,4-Dimethyl-1-(3-methylbutyl]pentylamino]propyl]piperidine] | 88 | –
CCCCCCCN(CCCN1CCCCC1)CCC(C)C [Synthesis Example 34, 1-[3-[N-heptyl-N-(3-methylbutyl)amino]propyl]piperidine] | 91 | –
CC(C)CCN(CCCN1CCCCC1)CCC(C)C [Synthesis Example 26, 1-[3-[N,N-Bis-(3-methylbutyl)amino]propyl]piperidine] | 91 | LD50 [2]: 24.8 mg/kg
CC(C)CCOC(CNCCCN1CCCCC1)c1ccccc1 (stereo not drawn) [Synthesis Example 7] | 96 | –
CCCCCCN(CCCN1CCCCC1)CCC(C)C [Synthesis Example 33, 1-[3-[N-hexyl-N-(3-methylbutyl)amino]propyl]piperidine] | 83 | –
CC(C)CCC(CCCc1ccccc1)NCCCN1CCCCC1 (stereo not drawn) [Synthesis Example 13, 1-[3-[4-Methyl-1-(3-phenylpropyl)pentylamino]propyl]piperidine] | 96 | –
CC(C)CCC(CNCCCN1CCCCC1)Cc1ccccc1 (stereo not drawn) [Synthesis Example 12, 1-[3-(2-Benzyl-5-methylhexylamino)propyl]piperidino] | 98 | –
